Legend:
Type in all cases: cell-based
[1] = system: Phospho-Rb (Ser807/811) in OVCAR3 cells; assay: Phospho-Rb expression inhibition in OVCAR3 cells quantified by In Cell Western; conditions: Homo sapiens, OVCAR-3, 24 hours, read-out: OVCAR-3 pRb IC50
Method: Phospho-Rb Expression Inhibition in OVCAR3 Cells Quantified by in Cell Western
OVCAR3 cells were obtained from American Type Culture Collection (ATCC, HTB-161). OVCAR3 cells were plated in 96-well plates (VWR #10062-900, or Corning #3904) in 90 uL culture medium at a density of 20,000 cells/well in the RPM11640 growth medium containing 10% FBS and 1% Penicillin Streptomycin, and then incubated at 37° C. overnight. The following day, the test compound was administered to the cells by using 1000× compound stock solution prepared in DMSO at various concentrations. 1000× compound stock solution was first diluted in culturing medium to 10x, then 10 uL compound medium was added to each well in the cell plates. After administration of the compound, the cells were then incubated at 37° C. for 24 hours. Upon completion, the cells were washed with PBS briefly. 150 uL/well of 4% formaldehyde was added and the plates were incubated at room temperature for 20 mins. The cells were washed with PBS briefly, and permeabilized with 150 uL/well of ice cold 100% methanol for 10 mins. The cells were washed with PBS briefly and blocked with 100 uL/well LI-COR blocking buffer for 1 hr at room temperature with gentle shaking. The cells were incubated overnight at 4° C. with 50 uL primary antibody rabbit anti-Phospho-Rb (Ser807/811) (1:500, Cell Signaling, #8516) and anti-Rb (1:200, Santa Cruz, sc-73598) diluted in Intercept Blocking Buffer (LI-COR, #927-60001) containing 0.1% Tween 20. The next day, the cells were washed with 200 uL PBS containing 0.1% Tween 20, 5×5 mins at room temperature with gentle shaking, and incubated with 50 uL secondary antibody, IRDye® 800CW Goat anti-Rabbit IgG (1:1000, LI-COR, #926-32211) and IRDye® 680RD Goat anti-Mouse IgG (1:1000, LI-COR, #926-68070), in LI-COR blocking buffer with 0.2% Tween 20 for 1 hr at room temperature with gentle shaking. The cells were washed with 200 uL PBS containing 0.1% Tween 20, 5×5 mins at room temperature with gentle shaking. The cells were washed with PBS for 5 mins. 100 uL fresh PBS was added to each well and the plates were imaged on a LI-COR Odyssey CLX plate reader.

[2] = system: CCNE1-amplified OVCAR3 cells; assay: Cell growth inhibition of CCNE1-amplified OVCAR3 cells (CellTiter-Glo); conditions: Homo sapiens, OVCAR-3, 144 h, 6 days
Method: Cell Growth Inhibition of CCNE1-Amplified OVCAR3 Cells
(§1) OVCAR3 cells were seeded in 96-well plates at 2000 cells/well in 90 μl of RPM11640 growth medium containing 10% FBS and 1% Penicillin Streptomycin, and then incubated at 37° C. overnight. The following day, the test compound was administered to the cells by using 1000× compound stock solution prepared in DMSO at various concentrations. 1000× compound stock solution was first diluted in culturing medium to 10x, then 10 uL compound medium was added to each well in the cell plates. After administration of the compound, the cells were then incubated at 37° C. for 6 days. Upon completion, the plates were equilibrated at room temperature for approximately 10 minutes. 100 ul of CellTiter-Glo® Reagent (Promega) was added to each well. The plates were then incubated at room temperature for 10 minutes and luminescence was recorded by EnSpire plate reader (PerkinElmer).

CCNE1-normal SKOV3 cells = assay: Cell growth inhibition of CCNE1-normal SKOV3 cells (CellTiter-Glo); conditions: Homo sapiens, SK-OV-3, 144 h, 6 days
Method: Cell Growth Inhibition of CCNE1-Normal SKOV3 Cells
as §1, with “SKOV3 cells were obtained from American Type Culture Collection (ATCC, HTB-77). SKOV3” for “OVCAR3”, “1000” for “2000”

| IC50 [1] | IC50 [2] | Compound | IC50 (CCNE1-normal SKOV3 cells) |
| --- | --- | --- | --- |
| 2 to 10 nM | 10 to 50 nM | CC1CCCOc2cc(ccn2)Nc2cc([nH]n2)[C@H]2CC[C@H](C2)OC(=O)N1 (mixture of isomers) [Compound 8, (1^1S,1^3R,Z)-9-methyl-2^1H-5,12-dioxa-3,10-diaza-4(4,2)-pyridina-2(3,5)-pyrazola-1(1,3)-cyclopentanacyclododecaphan-11-one] | > 1250 nM |
| 10 to 50 nM | 50 to 250 nM | O=C1NC2CC(C2)CC(F)(F)c2cc(ccn2)Nc2cc(n[nH]2)[C@H]2CC[C@H](C2)O1 (single isomer, unassigned) [Compound 169, (1^1S,1^3R,7^1R,7^3S,Z)-5,5-difluoro-2^1H-10-oxa-3,8-diaza-4(4,2)-pyridina-2(3,5)-pyrazola-1(1,3)-cyclopentana-7(1,3)-cyclobutanacyclodecaphan-9-one] | > 1250 nM |
| 10 to 50 nM | 10 to 50 nM | O=C1NCCCCOc2cc(ccn2)Nc2cc([nH]n2)[C@H]2CC[C@H](C2)O1 [Compound 1, (1^1S,1^3R,Z)-2^1H-5,12-dioxa-3,10-diaza-4(4,2)-pyridina-2(3,5)-pyrazola-1(1,3)-cyclopentanacyclododecaphan-11-one] | > 1250 nM |
| 10 to 50 nM | 50 to 250 nM | O=C1NCCCCCOc2cc(ccn2)Nc2cc([nH]n2)[C@H]2CC[C@H](C2)O1 [Compound 3, (1^1S,1^3R,Z)-2^1H-5,13-dioxa-3,11-diaza-4(4,2)-pyridina-2(3,5)-pyrazola-1(1,3)-cyclopentanacyclotridecaphan-12-one] | > 1250 nM |
| 50 to 250 nM | 50 to 250 nM | O=C1NC23CC(COc4cc(ccn4)Nc4cc([nH]n4)[C@H]4CC[C@H](C4)O1)(C2)C3 [Compound 18, (1^1S,1^3R,Z)-2^1H-5,10-dioxa-3,8-diaza-4(4,2)-pyridina-2(3,5)-pyrazola-7(1,3)-bicyclo[1.1.1]pentana-1(1,3)-cyclopentanacyclodecaphan-9-one] | > 1250 nM |
| ≤ 2 nM | ≤ 2 nM | O=C1NC23CC(CCOc4cc(ccn4)Nc4cc([nH]n4)[C@H]4CC[C@H](C4)O1)(C2)C3 [Compound 22, (1^1S,1^3R,Z)-2^1H-5,11-dioxa-3,9-diaza-4(4,2)-pyridina-2(3,5)-pyrazola-8(1,3)-bicyclo[1.1.1]pentana-1(1,3)-cyclopentanacycloundecaphan-10-one] | 10 to 50 nM |
| 10 to 50 nM | 10 to 50 nM | O=C1NCCCOC2(CC2)c2cc(ccn2)Nc2cc([nH]n2)[C@H]2CC[C@H](C2)O1 [Compound 26, (1'S,3′R,Z)-spiro[cyclopropane-1,5′-6,12-dioxa-3,10-diaza-4(4,2)-pyridina-2(3,5)-pyrazola-1(1,3)-cyclopentanacyclododecaphan]-11′-one] | 250 to 1250 nM |
| 10 to 50 nM | 50 to 250 nM | O=C1NC2(CCCOc3cc(ccn3)Nc3cc([nH]n3)[C@H]3CC[C@H](C3)O1)CC2 [Compound 33, (1'S,3′R,Z)-spiro[cyclopropane-1 9′-5,12-dioxa-3,10-diaza-4(4,2)-pyridina-2(3,5)-pyrazola-1(1,3)-cyclopentanacyclododecaphan]-11′-one] | > 1250 nM |
| 50 to 250 nM | > 250 nM | [2H]C1([2H])Oc2cc(ccn2)Nc2[nH]nc(c2Cl)[C@H]2CC[C@H](C2)OC(=O)NC2CC1C2 [Compound 222, (1^1S,1^3R,7^1R,7^3S,E)-24-chloro-2^1H-5,10-dioxa-3,8-diaza-4(4,2)-pyridina-2(3,5)-pyrazola-1(1,3)-cyclopentana-7(1,3)-cyclobutanacyclodecaphan-9-one-6,6-d2] | – |
| ≤ 2 nM | ≤ 2 nM | C[C@H]1CCCOc2cncc(n2)Nc2cc(n[nH]2)[C@H]2CC[C@H](C2)OC(=O)N1 [Compound 233, (1^1S,1^3R,9S,Z)-9-methyl-2^1H-5,12-dioxa-3,10-diaza-4(2,6)-pyrazina-2(3,5)-pyrazola-1(1,3)-cyclopentanacyclododecaphan-11-one] | – |
| 2 to 10 nM | 10 to 50 nM | C[C@H]1CCCOc2cncc(n2)Nc2[nH]nc(c2F)[C@H]2CC[C@H](C2)OC(=O)N1 [Compound 234, (1^1S,1^3R,9S,E)-2^4-fluoro-9-methyl-2^1H-5,12-dioxa-3,10-diaza-4(2,6)-pyrazina-2(3,5)-pyrazola-1(1,3)-cyclopentanacyclododecaphan-11-one] | – |
| ≤ 2 nM | ≤ 2 nM | O=C1NC2CC(COc3cncc(n3)Nc3cc(n[nH]3)[C@H]3CC[C@H](C3)O1)C2 [Compound 235, (1^1S,1^3R,7^1R,7^3S,Z)-2^1H-5,10-dioxa-3,8-diaza-4(2,6)-pyrazina-2(3,5)-pyrazola-1(1,3)-cyclopentana-7(1,3)-cyclobutanacyclodecaphan-9-one] | – |
| 2 to 10 nM | 10 to 50 nM | O=C1NC2CC(COc3cncc(n3)Nc3[nH]nc(c3F)[C@H]3CC[C@H](C3)O1)C2 [Compound 236, (1^1S,1^3R,7^1R,7^3S,E)-2^4-fluoro-2^1H-5,10-dioxa-3,8-diaza-4(2,6)-pyrazina-2(3,5)-pyrazola-1(1,3)-cyclopentana-7(1,3)-cyclobutanacyclodecaphan-9-one] | – |
| 10 to 50 nM | 50 to 250 nM | C[C@H]1CCCOc2cc(ccn2)Nc2[nH]nc(c2F)C2C[C@@H](F)[C@H](C2)OC(=O)N1 [Compound 237, (1^1R,1^3S,1^4R,9S,E)-1^4,2^4-difluoro-9-methyl-2^1H-5,12-dioxa-3,10-diaza-4(4,2)-pyridina-2(3,5)-pyrazola-1(1,3)-cyclopentanacyclododecaphan-11-one] | – |
| 10 to 50 nM | 50 to 250 nM | C[C@H]1CCCOc2cc(ccn2)Nc2[nH]nc(c2F)C2C[C@H](F)[C@@H](C2)OC(=O)N1 [Compound 238, (1^1S,1^3R,1^4S,9S,E)-1^4,2^4-difluoro-9-methyl-2^1H-5,12-dioxa-3,10-diaza-4(4,2)-pyridina-2(3,5)-pyrazola-1(1,3)-cyclopentanacyclododecaphan-11-one] | – |
| ≤ 2 nM | ≤ 2 nM | C[C@H]1CCCOc2nccc(n2)Nc2cc(n[nH]2)[C@H]2CC[C@H](C2)OC(=O)N1 [Compound 241, (1^1S,1^3R,9S,Z)-9-methyl-2^1H-5,12-dioxa-3,10-diaza-4(4,2)-pyrimidina-2(3,5)-pyrazola-1(1,3)-cyclopentanacyclododecaphan-11-one] | – |
| 2 to 10 nM | 10 to 50 nM | C[C@H]1CCCOc2nccc(n2)Nc2[nH]nc(c2F)[C@H]2CC[C@H](C2)OC(=O)N1 [Compound 256, (1^1S,1^3R,9S,E)-2^4-fluoro-9-methyl-2^1H-5,12-dioxa-3,10-diaza-4(4,2)-pyrimidina-2(3,5)-pyrazola-1(1,3)-cyclopentanacyclododecaphan-11-one] | – |
| > 250 nM | > 250 nM | C[C@@H]1CC23CC(C2)(C3)NC(=O)O[C@@H]2CC[C@@H](C2)c2cc(n[nH]2)Nc2cc(nc(C(F)F)c2)O1 [compound 24] | – |
| > 250 nM | > 250 nM | C[C@H]1CC23CC(C2)(C3)NC(=O)O[C@@H]2CC[C@@H](C2)c2cc(n[nH]2)Nc2cc(nc(C(F)F)c2)O1 [compound 25] | – |

From patent publication US20240317777A1, “NOVEL MACROCYCLIC AMINOPYRAZOLE COMPOUNDS AS CDK2 INHIBITORS” (Accutar Biotechnology Inc., priority 2023, published 2024)
